Test: physchem
Settings: octan-1-ol/water, pH 7.4, LogD7.4

Compound | logD
Cc1cccc(C(=O)N2CCC(C(=O)c3ccc(F)cc3)CC2)c1 | 3.4
O=S(=O)(Cc1cc(Cl)cc(Cl)c1)NCC(c1ccccc1)N1CCCCCC1 (stereo not drawn) | 3.23
O=S(=O)(NCC(c1ccccc1)N1CCCCCC1)c1ccc(Br)cc1 (stereo not drawn) | 3.21
CCCS(=O)(=O)c1ccc(C(CNS(=O)(=O)c2ccc(C(F)(F)F)cc2)N2CCCCCC2)cc1 (stereo not drawn) | 3.32
Cc1cc(C)c2c(N)c(C(=O)NCc3ccccc3)sc2n1 | 3.41
Cc1cc2n[nH]c(=O)n2c2cc(-c3cccc(CO)c3)ccc12 | 3.36
Cc1cc2n[nH]c(=O)n2c2cc(-c3ccc[nH]3)ccc12 | 3.29
COc1ccc(-c2c(C)c3ccc(OC)cc3oc2=O)cc1 | 3.31
CNC(=O)c1ccc(CCC(COc2ccc(-c3cccc([N+](=O)[O-])c3)cc2)N2C(=O)CSC2=O)cc1 (stereo not drawn) | 3.5
Cc1cc(Cl)ccc1N1CCN(C(=O)COCc2ccncc2)CC1 | 3.22
O=C(COCc1ccccn1)N1CCN(c2ccc(Cl)cc2Cl)CC1 | 3.47
Nc1ccc(Cl)c(C(=O)NCC23CC4CC(CC(C4)C2)C3)c1 | 3.45
Nc1cccc(C(=O)NCC23CC4CC(CC(C4)C2)C3)c1Cl | 3.29
O=C(O)c1ccc2cccc(O)c2n1 | 3.3
CSc1ncccc1C(=O)NCCc1ccc(Cl)cc1 | 3.31
c1ccc(-c2ccc(COc3ccc4c(c3)CCC(CCN3CCCCC3)C4)cc2)cc1 (stereo not drawn) | 3.3
CCCS(=O)(=O)N1CCCC(C(=O)N2CCC(Cc3ccccc3)CC2)C1 (stereo not drawn) | 3.44
O=c1c2cnn(-c3ccccc3)c2nc(-c2ccco2)n1-c1ccccc1 | 3.29
O=c1ccoc2cc(OCc3ccccc3)ccc12 | 3.33
O=C(Nc1ccccc1)c1cc2ccccc2o1 | 3.44
COc1ccc(C(=O)Nc2cccc(NC(=O)c3ccc(OC)c(OC)c3)n2)cc1OC | 3.5
COc1ccc(Cl)cc1NC(=O)CCS(=O)(=O)c1ccc(Br)cc1 | 3.4

Compound | logD
Oc1nc2ccccc2nc1NCc1ccccc1 | 3.3
O=C(NCc1ccncc1)c1ccc(Oc2ccccc2)cc1 | 3.26
Cc1cc(NC(=O)c2ccc(Cl)cc2)n(-c2ccccc2)n1 | 3.25
CN1CCOc2cc(COc3ccccc3)cnc21 | 3.3
Cn1cnc2cc(C#Cc3ccccc3)cnc21 | 3.5
O=C1CCOc2nc(C#CC3CCCCC3)ccc21 | 3.3
O=C1CCOc2nc(/C=C/c3ccccc3)ccc21 | 3.2
CC[C@H](NC(=O)c1c(CS(C)(=O)=O)c(-c2ccccc2)nc2ccccc12)c1ccccc1 | 3.25
CC[C@H](NC(=O)c1c([S+]([O-])CC)c(-c2ccccc2)nc2ccccc12)c1ccccc1 (stereo partly drawn) | 3.45
Oc1ccc(-c2cnc3ccccc3n2)cc1 | 3.3
COc1cc(Nc2nccc(Oc3cnc4ccccc4c3)n2)cc(OC)c1OC | 3.41
CN(c1ccccc1)c1ccnc(Nc2cc(N3CCOCC3)cc(N3CCOCC3)c2)n1 | 3.47
COc1cc(F)ccc1-c1cncc(CNC(=O)C2CCC2)c1 | 3.2
COc1ccc(OC)c(-c2c(F)ccc3c(N)c(C(=O)NC4CC4)nnc23)c1 | 3.47
COc1ccc(-c2c(F)ccc3c(N)c(C(=O)NC4CC4)nnc23)c(OC)n1 | 3.37
COc1ncc(C)cc1-c1cccc2c(N)c(C(=O)NC3CC3)nnc12 | 3.4
C[C@H]1CCCN1CCc1cc2cc(-c3ccc(C#N)cc3)ccc2o1 | 3.25
COc1cc(N2CCN(C(N)=O)CC2)ccc1Nc1ncc(Cl)c(-c2cnc3ccccn23)n1 | 3.3
COc1cc(N2CCN(C(C)=O)CC2)ccc1Nc1ncc(Cl)c(-c2cnc3c(C)cccn23)n1 | 3.2
COc1cc(N2CCN(C(C)=O)CC2)ccc1Nc1ncc(Cl)c(-c2cnc3c(OC)cccn23)n1 | 3.5
COc1cc(N2CCN(C(C)=O)CC2)ccc1Nc1ncc(Cl)c(-c2cnc3cc(C)ccn23)n1 | 3.3
CN(C(=O)Cc1ccc(O)cc1)C1CCN(CCC(c2ccccc2)c2ccccc2)CC1 | 3.3

Compound | logD
COc1ccc(C(=O)Nc2cc(NC(=O)c3cccc(N(C)C)c3)ccc2Br)cc1OC | 3.49
Oc1ccc(-c2nc3ccc(O)cc3o2)cc1 | 3.3
N[C@H](CNC(=O)c1cc2c(-c3ccccc3Cc3ccccc3)cccc2[nH]1)C(=O)O | 3.25
Cc1c(Sc2ccc(Cl)cc2)c2cc(Cl)ccc2n1Cc1nnn[nH]1 | 3.25
N#Cc1c(-c2ccc(-c3ccccc3C(F)(F)F)cc2)nc2ccncc2c1O | 3.3
CCc1ccccc1-c1ccc(-c2nc3ccncc3c(O)c2C#N)cc1 | 3.5
O=c1[nH]c(-c2ccccc2)nc2cc(Cl)ccc12 | 3.31
Nc1cc2n[nH]c(=O)n2c2cc(-c3cccs3)ccc12 | 3.26
O=C(Nc1ccc(Cl)c(Cl)c1)N1CCN(C[C@H]2CN(C3CC3)CCO2)CC1 | 3.32
O=c1c(-c2ccc([N+](=O)[O-])cc2)coc2cc(O)cc(O)c12 | 3.24
CC(C)(C)OC(=O)N1CCN(c2ncc(OCc3ccc(S(C)(=O)=O)cc3)cn2)CC1 | 3.27
Cn1cc(C#N)cc1-c1c2c(=O)n(CC#CCn3cncn3)c(=O)n(CC3CC3)c2nn1Cc1ccnc2ccc(Cl)cc12 | 3.43
Cn1cc(C#N)cc1-c1c2c(=O)n(CC#N)c(=O)n(CC3CC3)c2nn1Cc1ccnc2ccc(Cl)cc12 | 3.33
COc1cc(CCc2cc(Nc3ccnc(NCc4ccccn4)n3)[nH]n2)cc(OC)c1 | 3.5
CC(C)c1ccccc1Cc1cc(C(=O)Nc2ccc(S(=O)(=O)c3ccccc3C(C)(C)C)cc2)c(O)c(O)c1O | 3.44
CC(C)OC(=O)N1CCC(Oc2ncnc3c2CCN3c2ccc(S(C)(=O)=O)cc2F)CC1 | 3.4
Cc1ccc(Oc2cccc(CN3CCCC(n4cc(C)c(=O)[nH]c4=O)C3)c2)cc1 (stereo not drawn) | 3.38
Cc1cn(C2CCCN(Cc3cccc(Oc4ccc(Cl)cc4)c3)C2)c(=O)[nH]c1=O (stereo not drawn) | 3.38
CC#Cc1cncc(-c2cccc(C3(C4CC4)N=C(C)C(N)=N3)c2)c1 (stereo not drawn) | 3.3
O=C(NC[C@@H](O)CN1CCC(Oc2ccc(Cl)c(Cl)c2)CC1)c1cn2cc(F)ccc2n1 | 3.33
N#C/C(=C(\N)Sc1ccc(N)cc1)c1ccccc1C(F)(F)F | 3.4
O=C(N[C@H]1Cc2ccccc2N(C[C@@H](O)CO)C1=O)c1cc2cc(Cl)sc2[nH]1 | 3.3

Compound | logD
O=S(=O)(c1ccccc1)C1(c2cc(N3CCOCC3)nc(-c3cccc4[nH]ccc34)n2)CC1 | 3.4
C[C@@H](NC(=O)C1(N)CCN(c2ncnc3[nH]ccc23)CC1)c1ccc(Cl)cc1 | 3.3
NC1(C(=O)NC(c2ccc(Cl)cc2)C2CC2)CCN(c2ncnc3[nH]ccc23)CC1 (stereo not drawn) | 3.4
Nc1nc2cc3c(cc2s1)CCN(Cc1cccc(F)c1)CC3 | 3.3
CCCN(CCC)C(=O)c1cccc(C(=O)N[C@@H](Cc2ccccc2)[C@H](O)CNC2Cc3ccccc3C2)c1 | 3.3
COCCC(=O)N(C)c1ccc(Nc2ncc3cc(-c4ccncc4)ccc3n2)cc1 | 3.23
CC(=O)N[C@H](C)c1ccc(Nc2ncc3cc(-c4ccncc4)cc(C)c3n2)cc1 | 3.46
O=C(NC1Cc2ccccc2N(CCCO)C1=O)c1cc2cc(Cl)sc2[nH]1 (stereo not drawn) | 3.49
O=C(NC1Cc2ccccc2N(C[C@@H](O)CO)C1=O)c1cc2cc(Cl)sc2[nH]1 (stereo partly drawn) | 3.37
N#C/C(=C(/N)Sc1ccc(N)cc1)c1ccccc1C(F)(F)F | 3.3
CCCCCC[C@H]1OC(=O)CNC(=O)[C@@H]([C@H](C)O)NC(=O)[C@H](CO)NC(=O)[C@H]([C@H](C)CC)NC(=O)[C@H](CC(C)C)N(C)C(=O)[C@@H]1C | 3.2
C[C@H](NC(=O)/C=C/c1ccccc1)c1cccc(N2CCOCC2)c1 | 3.24
C[C@@H]1CCCN1CCc1cc2cc(-c3ccc(C#N)cc3)ccc2o1 | 3.51
CC(C)Cn1c(=O)n(C)c(=O)c2c(S(=O)(=O)N3CC[C@@H](O)C3)c(Cc3ccccc3C(F)(F)F)sc21 | 3.32
O=C(Nc1nc2ccccc2n1CCN1CCOCC1)c1cccc([N+](=O)[O-])c1 | 3.3
COc1cc2ncnc(Nc3cc(Cl)ccc3F)c2cc1OCCCN1CCOCC1 | 3.4
COc1cc(N2CCN(C)CC2)c2nc(C(=O)Nc3ccc(N4CCOCC4)cc3)cc(N(C)C)c2c1 | 3.3
O=C(N[C@@H]1Cc2ccccc2N(C[C@@H](O)CO)C1=O)c1cc2cc(Cl)sc2[nH]1 | 3.27
C[C@H](CO)Nc1nc(SCc2cccc(Cl)c2)nc2nc(N)sc12 | 3.31
O=C(N[C@H]1Cc2ccccc2N(C[C@H](O)CO)C1=O)c1cc2cc(Cl)sc2[nH]1 | 3.27
CCNC(=O)OC[C@@H](C)N(c1cc(Cl)ccc1CO)S(=O)(=O)c1ccc(Cl)cc1 | 3.4
C[C@H](CO)Nc1nc(SCc2cccc(F)c2F)nc2[nH]c(=O)c(C#N)cc12 | 3.32

Compound | logD
Cc1cnc2nc(SCc3cccc(F)c3F)nc(N[C@H](C)CO)c2n1 | 3.5
CC(CNS(=O)(=O)C(C)C)c1ccc(-c2ccc(C#N)cc2)cc1 (stereo not drawn) | 3.5
CNC(=O)c1ccc(Nc2ncc(F)c(-c3cnc(C)n3C(C)C)n2)cc1F | 3.31
Nc1ncc(NC(=O)c2cc(NC(=O)c3cccc(C(F)(F)F)c3)ccc2Cl)cc1Cl | 3.26
O=c1cc(-c2ccc(O)cc2)oc2ccc(O)cc12 | 3.3
C(=C\c1c(-c2ccccc2)nc2sccn12)/c1ccncn1 | 3.4
O=c1oc2ccccc2cc1-c1ccccc1 | 3.22
COc1cc2ncc(C(N)=O)c(Nc3ccc(C)cc3F)c2cc1OC | 3.34
COc1cc2c(Nc3cccc(Cl)c3Cl)c(C(N)=O)cnc2cc1NCCN(C)C | 3.41
CC(C)Oc1ccc(S(C)(=O)=O)cc1C(=O)N1CCN(c2ccc(C(F)(F)F)cc2)CC1 | 3.33
O=C(COCc1ccccc1)Nc1ccc2c(c1)C(=O)C(=O)c1ccccc1-2 | 3.21
Clc1ccc2[nH]ccc2c1 | 3.28
COc1cc2ncnc(Nc3cccc(C)c3)c2cc1OC | 3.5
Cc1cc(Oc2ccnc(Nc3cccc(N4CCOCC4)c3)c2)c(-c2ccccn2)nc1C | 3.27
Oc1ccc(CCc2ccc(O)cc2)cc1 | 3.3
CCOc1ccc2nc(NC(=O)CC)sc2c1 | 3.4
O=c1c(-c2ccc3c(c2)OCO3)coc2cc(O)cc(O)c12 | 3.5
CSc1nc2cc(Cl)ccc2[nH]1 | 3.22
COc1cc(C(=O)c2cc(Cl)ccc2N)cc(OC)c1OC | 3.38
COc1cc2ncnc(NCc3cccc(C)c3)c2cc1OC | 3.5

From ChEMBL document CHEMBL3301361, “Experimental in vitro DMPK and physicochemical data on a set of publicly disclosed compounds”
